# Publication PMC7187627 (Antimicrobial Agents and Chemotherapy, 2019)
# Like-named read-outs stand apart in the source and are kept apart here.
# Assay: Plasma pharmacokinetics, multiple-ascending-dose phase 1 study
# Assay type: in vivo, human
# Conditions: human, plasma; for Vd/F: read-out: Vz/F,ss
# Description: This study was conducted in full accordance with the Declaration of Helsinki and good clinical practices (GCP) at Quintiles Phase One Services in Overland Park, KS. Subjects were randomized in a 4:1 fashion (8 active:2 placebo) in each cohort to receive 200 mg, 400 mg, or 600 mg of CRS3123 or matching placebo every 12 h for 10 days (https://clinicaltrials.gov/ct2/show/NCT02106338). Subjects fasted 1 h before and 2 h after administration of the study product with a minimum of 8 oz. (240 ml) of water. Water and noncaffeinated drinks (except grapefruit juice) during the study were not restricted. Informed consent was obtained before any study-related procedures and clinical evaluations were performed. All 30 randomized subjects completed the study; 24 subjects received CRS3123 and 6 subjects received placebo. There were no premature withdrawals or discontinuations.
# After a screening period of up to 35 days, eligible subjects were admitted to the study center for baseline evaluations on day −1. On the morning of day 1, eligible subjects were randomized to receive either the study drug or placebo orally every 12 h through day 10. Subjects remained inpatient at the study center until discharge on day 12. During the inpatient period, subjects were monitored for safety and pharmacokinetics (PK). Subjects were followed for 2 additional outpatient visits at the study center, on days 18 ± 2 and 29 ± 2.
# PK method development, validation, and sample testing for plasma, feces, and urine were performed at KCAS, LLC (Shawnee, KS). Plasma, urine, and fecal concentrations of CRS3123 were determined by means of validated, sensitive, and specific high-performance liquid chromatography/tandem mass spectrometric (HPLC-MS/MS) assays. The lower limits of quantification of CRS3123 in plasma, feces, and urine were 10.0 ng/ml, 60.0 ng/g, and 100.0 ng/ml, respectively. The validated urine PK assay measured total free CSR3123. Since the majority of urinary CRS3123 was excreted as glucuronide conjugates ([32]), an enzymatic cleavage step using glucuronidase was added to the process to convert the glucuronide conjugates to free CRS3123 for the urine analysis.
# The PK population consisted of all subjects who received active study drug (CRS3123) and had at least one measured CRS3123 concentration at a scheduled PK time point after the start of study drug administration.
# Pharmacokinetic parameters for plasma were derived using noncompartmental methods with Phoenix WinNonlin version 6.4 (Pharsight Corporation, Certara L.P., Princeton, NJ). PK parameters for urine and feces were derived using SAS version 9.4 (SAS Institute, Inc., Cary, NC). All statistical calculations and reporting were performed using SAS version 9.4. Graphics were prepared with SAS version 9.4 or SigmaPlot 12.5 (Systat Software, Inc., San Jose, CA).
# (i) Plasma PK. Plasma concentrations of CRS3123 throughout the 12-h dosing interval on PK days (day 1 and day 10) were summarized using descriptive statistics for each treatment.
# One-way analysis of variance (ANOVA) models were used to assess any differences in appropriate PK parameters between adjacent dose levels following a single dose (day 1) and multiple doses (day 10). An ANOVA model on the log-transformed PK parameters (AUC0–12 and Cmax on day 1; AUC0–tau and Cmax on day 10) with fixed effect for treatment was performed separately for the single-dose analysis and multiple-dose analysis. From these models, the least-squares (LS) means together with 95% confidence intervals (Cis) for each dose and the LS means with corresponding 90% CIs for all adjacent dose pairs were calculated. Transformed back from the logarithmic scale, geometric LS means with corresponding 90% CIs were provided for each dose and adjacent dose ratios following both single and multiple dosing. PK accumulation was presented using descriptive statistics, and achievement of steady state was assessed graphically. […]
smiles,measurement,setting,value
O=c1cc(NCCCN[C@@H]2CCOc3c(Br)cc(Br)cc32)[nH]c2ccsc12 [CRS3123],half-life,"oral, 400 mg, 400 mg Q12h, day 10, geometric mean, read-out: Plasma t1/2,ss (converted)",5.19 h
same,Vd/F,"oral, 400 mg, 400 mg Q12h, day 10, geometric mean",937 L
same,Cmax,"oral, 400 mg, 400 mg Q12h, day 10, median, read-out: Plasma Cmax,ss",603 ng/mL
same,Vd/F,"oral, 400 mg, 400 mg Q12h, day 10, median",917 L
same,half-life,"oral, 600 mg, 600 mg Q12h, day 1, geometric mean, read-out: Plasma t1/2 (converted)",3.04 h
same,Cmax,"oral, 600 mg, 600 mg Q12h, day 1, median, read-out: Plasma Cmax",642 ng/mL
same,half-life,"oral, 600 mg, 600 mg Q12h, day 10, geometric mean, read-out: Plasma t1/2,ss (converted)",6.32 h
same,Vd/F,"oral, 600 mg, 600 mg Q12h, day 10, geometric mean",1400 L
same,Cmax,"oral, 600 mg, 600 mg Q12h, day 10, median, read-out: Plasma Cmax,ss",674 ng/mL
same,Vd/F,"oral, 600 mg, 600 mg Q12h, day 10, median",1410 L
same,Tmax,"oral, 600 mg, after first dose, day 1, range across the 3 dose groups (200, 400, 600 mg), read-out: median time to maximum concentration (Tmax)",7200 to 10800 s
same,half-life,"oral, after 10 days twice-daily, range across the three dose groups, read-out: geometric mean t1/2,ss",5 to 6 h
same,Tmax,"oral, after 10 days twice-daily, range across the three dose groups, read-out: median Tmax at steady state (Tmax,ss)",3600 to 7200 s
same,half-life,"oral, after first dose, day 1, range across the 3 dose groups, read-out: geometric mean half-life (t1/2)",3 to 4 h
same,AUC(0-t),"oral, 200 mg Q12h, day 1, median, read-out: Plasma AUC(0-12)",1230 ng·h/mL
same,AUC,"oral, 200 mg Q12h, day 10, median, read-out: Plasma AUC(0-tau)",2470 ng·h/mL
same,AUC(0-t),"oral, 400 mg Q12h, day 1, median, read-out: Plasma AUC(0-12)",2510 ng·h/mL
same,AUC,"oral, 400 mg Q12h, day 10, median, read-out: Plasma AUC(0-tau)",3310 ng·h/mL
same,AUC(0-t),"oral, 600 mg Q12h, day 1, median, read-out: Plasma AUC(0-12)",3630 ng·h/mL
same,AUC,"oral, 600 mg Q12h, day 10, median, read-out: Plasma AUC(0-tau)",3740 ng·h/mL
same,Cmax,"po, 200 mg, 200 mg Q12h oral, day 1, geometric mean (%CV), read-out: Plasma Cmax",352 ng/mL
same,Tmax,"po, 200 mg, 200 mg Q12h oral, day 1, median (minimum, maximum), read-out: Plasma Tmax",7200 s
same,half-life,"po, 200 mg, 200 mg Q12h oral, day 1, median (minimum, maximum), read-out: Plasma t1/2 (converted)",2.96 h
same,Cmax,"po, 200 mg, 200 mg Q12h oral, day 10, geometric mean (%CV), read-out: Plasma Cmax,ss",470 ng/mL
same,Tmax,"po, 200 mg, 200 mg Q12h oral, day 10, median (minimum, maximum), read-out: Plasma Tmax,ss",5400 s
same,half-life,"po, 200 mg, 200 mg Q12h oral, day 10, median (minimum, maximum), read-out: Plasma t1/2,ss (converted)",4.59 h
same,Cmax,"po, 400 mg, 400 mg Q12h oral, day 1, geometric mean (%CV), read-out: Plasma Cmax",507 ng/mL
same,Tmax,"po, 400 mg, 400 mg Q12h oral, day 1, median (minimum, maximum), read-out: Plasma Tmax",10800 s
same,half-life,"po, 400 mg, 400 mg Q12h oral, day 1, median (minimum, maximum), read-out: Plasma t1/2 (converted)",3.61 h
same,Cmax,"po, 400 mg, 400 mg Q12h oral, day 10, geometric mean (%CV), read-out: Plasma Cmax,ss",615 ng/mL
same,Tmax,"po, 400 mg, 400 mg Q12h oral, day 10, median (minimum, maximum), read-out: Plasma Tmax,ss",7200 s
same,half-life,"po, 400 mg, 400 mg Q12h oral, day 10, median (minimum, maximum), read-out: Plasma t1/2,ss (converted)",5.01 h
same,Cmax,"po, 600 mg, 600 mg Q12h oral, day 1, geometric mean (%CV), read-out: Plasma Cmax",654 ng/mL
same,Tmax,"po, 600 mg, 600 mg Q12h oral, day 1, median (minimum, maximum), read-out: Plasma Tmax",7200 s
same,half-life,"po, 600 mg, 600 mg Q12h oral, day 1, median (minimum, maximum), read-out: Plasma t1/2 (converted)",2.85 h
same,Cmax,"po, 600 mg, 600 mg Q12h oral, day 10, geometric mean (%CV), read-out: Plasma Cmax,ss",731 ng/mL
same,Tmax,"po, 600 mg, 600 mg Q12h oral, day 10, median (minimum, maximum), read-out: Plasma Tmax,ss",3600 s
same,half-life,"po, 600 mg, 600 mg Q12h oral, day 10, median (minimum, maximum), read-out: Plasma t1/2,ss (converted)",6.1 h
same,AUC(0-t),"200 mg Q12h oral, day 1, geometric mean (%CV), read-out: Plasma AUC (AUC0–12)",1550 ng·h/mL
same,AUC,"200 mg Q12h oral, day 10, geometric mean (%CV), read-out: Plasma AUC (AUC0–tau)",2500 ng·h/mL
same,AUC(0-t),"400 mg Q12h oral, day 1, geometric mean (%CV), read-out: Plasma AUC (AUC0–12)",2340 ng·h/mL
same,AUC,"400 mg Q12h oral, day 10, geometric mean (%CV), read-out: Plasma AUC (AUC0–tau)",3200 ng·h/mL
same,AUC(0-t),"600 mg Q12h oral, day 1, geometric mean (%CV), read-out: Plasma AUC (AUC0–12)",3560 ng·h/mL
same,AUC,"600 mg Q12h oral, day 10, geometric mean (%CV), read-out: Plasma AUC (AUC0–tau)",4030 ng·h/mL
